The record followed here is US5849755A, “3-amidochromanylsulfonyl(thio)ureas, processes for their preparation, their use, and pharmaceutical preparations comprising them” (Hoechst Aktiengesellschaft, priority 1996, dated 1998).

Test [1] deals with papillary muscle of the guinea pig. The test can be described thus: Test 1: Duration of the action potential of the papillary muscle of the guinea pig (APD95, shortened by HOE 234). The settings on record: HOE 234 1 μg/ml in bath, 30 minutes after addition, mean of n = 3, control with HOE 234 alone <40. It is filed as cell-based. From the text:
Test 1: Duration of the action potential of the papillary muscle of the guinea pig
ATP deficiency states such as are observed in the cardiac muscle cell during ischemia lead to a shortening of the duration of the action potential. They are regarded as one of the causes of so-called "re-entry arrhythmias," which can cause sudden cardiac death. The opening of ATP-sensitive potassium channels as a result of the fall in ATP is regarded as the cause of this.
A standard microelectrode technique was employed to measure the action potential. For this, guinea pigs of both sexes were sacrificed by a blow to the head, the hearts were removed and the papillary muscles were separated out and suspended in an organ bath. The organ bath was flushed with Ringer's solution (0.9% NaCl, 0.048% KCl, 0.024% CaCl2, 0.02% NaHCO3 and 0.1% glucose) and gassed with a mixture of 95% oxygen and 5% carbon dioxide at a temperature of 36° C. The muscle was stimulated via an electrode with rectangular pulses of 1 V and 1 ms duration and a frequency of 2 Hz. The action potential was derived through a glass microelectrode which was inserted intracellularly and filled with 3M KCl solution, and recorded. The substances to be tested were added to the Ringer's solution in a concentration of 2×10^-6 mol per liter or 2×10^-5 mol per liter. The action potential was amplified with a Hugo Sachs amplifier and shown on an oscilloscope. The duration of the action potential in milliseconds (ms) was determined at a degree of repolarization of 95% (APD95). Shortenings of the action potential were induced by addition of a solution of the potassium channel opener HOE 234 (Rilmakalim) (W. Linz, E. Klaus, U. Albus, R. H. A. Becker, D. Mania, H. C. Englert, B. A. Scholkens, Arzneimittelforschung/Drug Research, Volume 42 (II), 1992, 1180-1185), a concentration of HOE 234 in the bath solution of 1 μg/ml being established. The test substances were added to the bath solution as stock solutions in propanediol. The values stated are based on measurements 30 minutes after the addition. As a control, the APD95 value was determined in the presence of HOE 234 and in the absence of the test substance.
The measurement values (mean values from n experiments) are followed by the corresponding blank values in parentheses. The blank values are the APD95 values which were measured at the start of the experiment without HOE 234 and test substance in the Ringer's solution. The values obtained show the normalizing effect of the compounds according to the invention on a shortened duration of the action potential.

For test [2], the system named is RINm5F cells. The test can be described thus: Test 2: Membrane potential on isolated β cells (RINm5F, whole cell patch clamp). It is filed as cell-based. Conditions: diazoxide 100 μmol/l in bath, 34°±1° C. From the text:
Test 2: Membrane potential on isolated β cells The action mechanism of hypoglycemic sulfonylureas is understood in principle. The β cells of the pancreas are the target organ of sulfonylureas, where they bring about a release of the hypoglycemic hormone insulin by influencing the electrical potential of the cell membrane. A hypoglycemic sulfonylurea, for example glibenclamide, has the effect of depolarizing the cell membrane, which leads to an increased inflow of calcium ions and, as a consequence thereof, to the release of insulin. The extent AU of this depolarization of the cell membrane caused by the substances according to the invention was determined on insulin-secreting RINm5F cells, a pancreas tumor cell line. The activity of a compound in this model predicts the extent of the hypoglycemic potential of this compound. Cell cultures of RINm5F cells: RINm5F cells were cultured at 37° C. in RPMI 1640 culture medium (Flow) to which 11 mM glucose, 10% (volume/volume) fetal calf serum, 2 mM glutamine and 50 μg/ml of gentamycin were added. The cells were sown on Petri dishes every 2 to 3 days and kept at a temperature of 37° C. in a moistened atmosphere of […] and 5% CO2. For the investigations, the cells were isolated by incubation (about 3 minutes) in a Ca^2+ -free medium which comprised 0.25% trypsin. Measurement method: Isolated RINm5F cells were introduced into a Plexiglas chamber on an inverse microscope which was equipped with a differential interference contrast lens. Under visual control (400-fold magnification),a fire-polished micropipette with an opening diameter of about 1 μm was placed on the cell with the aid of a micromanipulator. By applying a slight reduced pressure to the inside of the patch pipette, a high electrical seal was initially established between the glass and the cell membrane. By increasing the reduced pressure, the membrane patch under the […] pipette was then broken open. In this whole cell configuration,the cell potential was recorded with the aid of a patch clamp amplifier (L/M EPC 7, List, Darmstadt) and the whole cell current was measured by applying a voltage ramp. […] Stock solutions (concentration 100 mmol/l) of the test substances in dimethyl sulfoxide (DMSO) and corresponding dilutions in NaCl solution were prepared. DMSO alone had no effect on the cell potential. To stabilize the cell potential, diazoxide (100 μmol/l), an opener of ATP-sensitive K^+ channels, was added to the bath solution in all experiments. All experiments were carried out at 34°±1° C. The following values ΔU (changes in the cell potentials caused by the addition of the test substances) were measured. The control values in parentheses are the cell potentials U before the addition of the test substances. For comparison the values obtained in this test with glibenclamide, a typical hypoglycemic benzenesulfonylurea, are given.

Molecules are shown by their SMILES.

Consider `CNC(=O)NS(=O)(=O)c1cc2c(cc1OC)OCC(NC(=O)c1cc(Cl)ccc1OC)C2` (stereo not shown) [Example 1, 3-(5-Chloro-2-methoxybenzamido)-6-(methylaminocarbonylaminosulfonyl)-7-methoxychroman], for which the “APD95 -HOE 234” value in test [1] (test substance 20 μmol/l) turned out to be 157 ± 36 ms. The “ΔU (mV), change in the cell potential caused by the addition of the test substance” value (“ΔU (mV), change” for short) was found to be 6 mV in test [2] (1 μmol/l) and 24 mV in test [2] (10 μmol/l).

`CNC(=S)NS(=O)(=O)c1cc2c(cc1OC)OCC(NC(=O)c1cc(Cl)ccc1OC)C2` (stereo not shown) [Example 6]: in test [1] (test substance 2 μmol/l), the “APD95 -HOE 234” value is 145 ± 19.1 ms. The “ΔU (mV), change” value in test [2] (1 μmol/l) is given as 3 mV.

For `CCNC(=S)NS(=O)(=O)c1cc2c(cc1OC)OCC(NC(=O)c1cc(Cl)ccc1OC)C2` (stereo not shown) [Example 7, 3-(5-Chloro-2-methoxybenzamido)-6-(ethylaminothiocarbonylaminosulfonyl)-7-methoxychroman], the “APD95 -HOE 234” value in test [1] (test substance 2 μmol/l) was 130 ± 28.1 ms. For the same compound, the “ΔU (mV), change” value in test [2] (1 μmol/l) stood at 29 mV.

`CCCNC(=O)NS(=O)(=O)c1cc2c(cc1OC)OCC(NC(=O)c1cc(Cl)ccc1OC)C2` (stereo not shown) [Example 3, 3-(5-Chloro-2-methoxybenzamido)-6-(n-propylamino-carbonylaminosulfonyl)-7-methoxychroman]: the “APD95 -HOE 234” value in test [1] (test substance 20 μmol/l) amounted to 134 ± 9 ms. For the same compound, the “ΔU (mV), change” value turned out to be 18 mV in test [2] (1 μmol/l) and 23 mV in test [2] (10 μmol/l).

As to `COc1ccc(Cl)cc1C(=O)NCCc1ccc(S(=O)(=O)NC(=O)NC2CCCCC2)cc1` [Glibenclamide, glibenclamide, reference compound], the “ΔU (mV), change” value in test [2] (1 μmol/l) is 47 mV; in test [2] (10 μmol/l), 46 mV.

As for `COc1ccc(F)cc1C(=O)NC1Cc2cc(S(=O)(=O)NC(=S)NC(C)C)c(OC)cc2OC1(C)C` (stereo not shown) [Example 21, 3-(5-Fluoro-2-methoxybenzamido)-2,2-dimethyl-6-(isopropylaminothiocarbonylaminosulfonyl)-7-methoxychroman], the “APD95 -HOE 234” value in test [1] (test substance 2 μmol/l) was 67 ± 10 ms.
